One compound from patent US7824668B2, “Compositions for attracting stink bugs” (Cotton Incorporated, priority 2006, dated 2010) can be followed below.

SMILES strings stand for the structures.

Format in all cases: in vivo
One assay concerns Euschistus tristigmus. The assay is described as follows: Tedders trap field capture of Euschistus tristigmus, pheromone with vs without geraniol synergist. The conditions noted are these: soybean field; 160 mg geraniol + 200 mg methyl (2E,4Z)-decadienoate vs 200 mg methyl (2E,4Z)-decadienoate alone; Pr>t 0.04. The procedure:
An experiment was carried out near Starkville, Oktibbeha County in Mississippi to study the response of Euschistus tristigmus in a crop field to a pheromone synergist. The crop field was a soybean field bordered on two sides by woods. Geraniol was used as a synergist with methyl (2E,4Z)-decadienoate, a pheromone for Euschistus tristigmus. Tedders traps were used in the experiment. Each trap was baited with 160 mg geraniol and 200 mg methyl (2E,4Z)-decadienoate and each control trap was baited with 200 mg methyl (2E,4Z)-decadienoate. The control trap contained no geraniol or other synergists. The trapped adult insects of Euschistus tristigmus were collected on a daily basis and the total number of trapped insects was counted. Statistical analysis was done using the Least Squares means separation from the SAS GLM procedure.

A further assay concerns Euschistus servus. The assay is described as follows: Tedders trap field capture of Euschistus servus, pheromone with vs without geraniol synergist. The conditions noted are these: 160 mg geraniol + 200 mg methyl (2E,4Z)-decadienoate vs pheromone alone. The protocol: An experiment was carried out near Starkville, Oktibbeha County in Mississippi to study the response of Euschistus servus to a pheromone synergist. Geraniol was used as a synergist with methyl (2E,4Z)-decadienoate, a pheromone for Euschistus servus. Tedders traps were used in the experiment. Each treatment trap was baited with 160 mg geraniol and 200 mg methyl (2E,4Z)-decadienoate and each control trap was baited with 200 mg methyl (2E,4Z)-decadienoate. The control trap contained no geraniol or any other synergist. The trapped adult insects of Euschistus servos were collected on a daily basis and their total numbers were counted. Statistical analysis was done using the Least Squares means separation from the SAS GLM procedure.

A further assay has as its system Euschistus species. The assay is described as follows: Tedders trap field capture of Euschistus species, pheromone with vs without geraniol synergist. The note with it: soybean field, Monticello, Ark.; 160 mg geraniol + 200 mg methyl (2E,4Z)-decadienoate vs pheromone alone; Pr>t 0.09. The procedure: An experiment was carried out in Monticello, Ark. to study the response of Euschistus species in a soybean field to a pheromone synergist. Geraniol was used as a synergist to methyl (2E,4Z)-decadienoate, which is a pheromone for both Euschistus species. […] traps were used in the experiment. Each treatment trap was baited with 160 mg geraniol and 200 mg methyl (2E,4Z)-decadienoate and each control trap was baited with 200 mg methyl (2E,4Z)-decadienoate. The control traps contained no geraniol or any other synergist. The trapped adult insects of Euschistus species were collected on a daily basis and their total numbers were counted. Statistical analysis was done using the Least Squares means separation from the SAS GLM procedure.

In the case of `CC(C)=CCC/C(C)=C/CO` [geraniol, E-(3,7)-Dimethyl-2,6-octadien-1-ol], the “increase in the number of captured Euchistus tristigmus” value with Euschistus tristigmus is on record as about 75%. For the same compound, the “increase in the number of captured bugs” value in the assay with Euschistus servus (crepe myrtle field, Pr>t 0.51) is about 72%; with Euschistus servus (field of mixed crops of plum and okra, Pr>t 0.02) it was about 92%; in the assay with Euschistus servus (new-peach field, Pr>t 0.05), about 251%; with Euschistus servus (old-peach field, Pr>t 0.02) it was about 122%; in the assay with Euschistus servus (soybean field, Pr>t 0.61), about 14%; with Euschistus species it was about 269%.
